Test systems include DU-145; EKVX; HCT-15; K562; KM12; M14; MDA-MB-231; MDA-N; MOLT-4; NCI-H460; OVCAR-3; OVCAR-5; SF-295; SK-MEL-2; SK-MEL-5; SN12C; SW-620; UO-31; HOP-92; A498.
Holding throughout (assay): NCI tumour cell line growth inhibition, 48 h

Where “and” joins values, the source holds several entries; their conditions need not be identical. Equal entries are not always repeated.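 Results reflect a 48-hour exposure of cells in 96-well plates to compound at five concentrations. GI50: concentration for 50% inhibition of growth.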 Calls of active or inactive are those of the source. No stated cut-off is given here; in the data, active = GI50 up to about 1.1 µM and inactive = higher.

In the case of `CC(=O)CCC(=O)C(=[N+]=[N-])S(=O)(=O)c1ccccc1`, the GI50 was > 100 µM (inactive) with DU-145; > 100 µM (inactive) in the test on EKVX; more than 100 µM with HCT-15; > 100 µM (inactive) with K562; > 100 µM (inactive) with KM12; > 100 µM (inactive) in the test on M14. Moreover, the GI50 in the test on MDA-MB-231, in the test with MDA-N, with MOLT-4, in the test with NCI-H460, in the test with OVCAR-3 and with OVCAR-5 was > 100 µM (inactive) in each case. Besides, the GI50 in the test with SF-295, in the test on SK-MEL-2, with SK-MEL-5, in the test with SN12C, in the test with SW-620 and in the test with UO-31 was > 100 µM (inactive) throughout.
Turning to `O=c1c(/C=C/c2c(O)ccc3ccccc23)nnc2sc(-c3cccc([N+](=O)[O-])c3)nn12`, the GI50 with DU-145 was 8.38 µM (inactive); in the test with EKVX, 18.7 µM (inactive); with HCT-15 it was 4.43 µM; with HOP-92, 24.2 µM (inactive); in the test on K562, 25.6 µM (inactive); in the test with KM12, 22.1 µM (inactive). For the same molecule, the GI50 is 10.8 µM (inactive) with M14; 7.33 µM (inactive) in the test on MDA-MB-231; 28.7 µM (inactive) in the test on MDA-N; 3.94 µM (inactive) in the test with MOLT-4; 2.73 µM (inactive) with OVCAR-3; 33 µM (inactive) with OVCAR-5. Also, the GI50 in the test on SF-295 is 26.8 µM (inactive); in the test with SK-MEL-2, 5.57 µM (inactive); in the test with SN12C, 9.33 µM (inactive); with SW-620 it was 3.03 µM (inactive); with UO-31, 9.93 µM (inactive).
For `CCNC(=O)CCC(C)[C@H]1CCC2C3C(C[C@H](OC(C)=O)[C@@]21C)[C@@]1(C)CCC2(C[C@H]1C[C@H]3OC(C)=O)OOC1(CCC(C)CC1)OO2` (stereo partly specified), the GI50 is 1.73 µM (inactive) and 2.37 µM (inactive) with DU-145; 1.39 µM (inactive) and 1.3 µM (inactive) in the test with EKVX; 1.99 µM and 2 µM in the test on HCT-15; 1.68 µM (inactive) and 1.44 µM (inactive) in the test on HOP-92; 3.8 µM (inactive) in the test with K562; 1.64 µM (inactive) and 1.57 µM (inactive) with KM12. The GI50 in the test on M14 was 2.73 µM (inactive) and 2.14 µM (inactive); with MDA-MB-231 it was 2.1 µM (inactive); in the test on MDA-N, 1.88 µM (inactive) and 2.65 µM (inactive); in the test with NCI-H460, 2.39 µM (inactive) and 1.75 µM (inactive); in the test with OVCAR-3, 1.55 µM (inactive) and 1.59 µM (inactive); in the test with OVCAR-5, 2.7 µM (inactive) and 1.82 µM (inactive). The GI50 with SF-295 is 3.82 µM (inactive) and 2 µM (inactive); in the test on SK-MEL-2 it was 1.58 µM (inactive) and 1.61 µM (inactive); in the test on SK-MEL-5 it was 1.67 µM (inactive) and 1.61 µM (inactive); in the test on SN12C, 2.52 µM (inactive) and 1.83 µM (inactive); in the test with SW-620 it was 4.6 µM (inactive) and 2.74 µM (inactive); with UO-31, 1.02 µM (active) and 1.35 µM (inactive).
Regarding `Cc1c2c(n(CCc3ccccc3)c1C)NN=C(C#N)S2(=O)=O`, the GI50 was > 100 µM (inactive) in the test with DU-145; > 100 µM (inactive) in the test on EKVX; more than 100 µM with HCT-15; > 100 µM (inactive) with K562; > 100 µM (inactive) with KM12; > 100 µM (inactive) in the test on M14. The GI50 in the test on MDA-MB-231, in the test on MDA-N, in the test with MOLT-4, in the test on NCI-H460, in the test on OVCAR-3 and with OVCAR-5 was > 100 µM (inactive) in each case. For the same molecule, the GI50 with SK-MEL-2, in the test with SK-MEL-5, in the test with SN12C, in the test on SW-620 and in the test with UO-31 was > 100 µM (inactive) throughout.
On to `COC(CNC(=O)C(C)NC(=O)CCc1ccccc1)OC` (stereo unspecified), for which the GI50 was > 100 µM (inactive) in the test on DU-145; > 100 µM (inactive) with EKVX; more than 100 µM with HCT-15; > 100 µM (inactive) in the test on HOP-92; > 100 µM (inactive) in the test with K562; > 100 µM (inactive) with KM12. For the same molecule, the GI50 with M14, in the test on MDA-MB-231, in the test on MDA-N, in the test on MOLT-4, in the test on NCI-H460 and in the test with OVCAR-5 was > 100 µM (inactive) each time. In addition, the GI50 in the test on SF-295, in the test with SK-MEL-2, with SK-MEL-5, in the test with SN12C, in the test on SW-620 and in the test on UO-31 was > 100 µM (inactive) throughout.
In the case of `CC(C)C1C(=O)N2CCCC2C2(O)OC(NC(=O)C3C=C4c5cccc6[nH]cc(c56)CC4N(C)C3)(C(C)C)C(=O)N12` (stereo unspecified), the GI50 is 35.4 µM (inactive) in the test with DU-145; 19.5 µM (inactive) in the test with EKVX; 20.5 µM in the test on HCT-15; 14.2 µM (inactive) in the test on HOP-92; 20.7 µM (inactive) with KM12; 23.8 µM (inactive) in the test with M14. For the same molecule, the GI50 was 15.9 µM (inactive) in the test with MDA-MB-231; 25 µM (inactive) in the test on MDA-N; 17 µM (inactive) in the test on MOLT-4; 19 µM (inactive) with NCI-H460; 17.9 µM (inactive) with OVCAR-3; 13.2 µM (inactive) in the test with OVCAR-5. The GI50 with SF-295 is 28.2 µM (inactive); in the test with SK-MEL-2, 17.7 µM (inactive); in the test on SK-MEL-5 it was 20.6 µM (inactive); in the test on SN12C, 35.4 µM (inactive); in the test on SW-620 it was 30.1 µM (inactive); in the test with UO-31, 13.5 µM (inactive).
Take `O=S(=O)(/N=S(/Nc1ccccc1)C(Cl)Cl)c1ccccc1` (stereo unspecified): the GI50 with DU-145 was > 100 µM (inactive); in the test with EKVX it was > 100 µM (inactive); with HCT-15 it was more than 100 µM; in the test with HOP-92, > 100 µM (inactive); in the test with K562, > 100 µM (inactive); in the test with KM12 it was > 100 µM (inactive). Also, the GI50 in the test on M14, with MDA-MB-231, in the test with MDA-N, in the test with MOLT-4, with NCI-H460 and with OVCAR-3 was > 100 µM (inactive) in each case. Also, the GI50 in the test with OVCAR-5, in the test on SF-295, in the test on SK-MEL-2, in the test with SN12C, in the test with SW-620 and in the test with UO-31 was > 100 µM (inactive) each time.
For `N#CCCC1(CCC#N)CCc2ccccc2C1=O`, the GI50 was > 100 µM (inactive) with DU-145; > 100 µM (inactive) in the test on EKVX; more than 100 µM in the test with HCT-15; > 100 µM (inactive) in the test on K562; > 100 µM (inactive) in the test on KM12; > 100 µM (inactive) in the test with M14. For the same molecule, the GI50 in the test on MDA-MB-231, with MDA-N, in the test with MOLT-4, in the test with NCI-H460, with OVCAR-3 and in the test with OVCAR-5 was > 100 µM (inactive) throughout. For the same molecule, the GI50 in the test with SK-MEL-2, with SK-MEL-5, in the test on SN12C, in the test with SW-620 and in the test on UO-31 was > 100 µM (inactive) throughout.
On to `CCN1C(=O)C(=C/C=C/c2ccc(OC)cc2)C(=O)N(CC)C1=S`, for which the GI50 in the test on DU-145 is 19.1 µM (inactive); in the test with EKVX it was 24 µM (inactive); with HCT-15, 17.5 µM; in the test with HOP-92 it was 14.2 µM (inactive); in the test with K562 it was 31.3 µM (inactive); with KM12, 20.3 µM (inactive). Besides, the GI50 in the test with M14 was 22.1 µM (inactive); in the test on MDA-MB-231, 19.8 µM (inactive); in the test on MDA-N, 18.2 µM (inactive); in the test with MOLT-4, 25.7 µM (inactive); with NCI-H460, 30.7 µM (inactive); in the test on OVCAR-3, 16.6 µM (inactive). The GI50 is > 100 µM (inactive) in the test on OVCAR-5; 60.4 µM (inactive) with SF-295; > 100 µM (inactive) with SK-MEL-2; 26.5 µM (inactive) in the test on SK-MEL-5; 18.2 µM (inactive) with SN12C; 20.8 µM (inactive) in the test with SW-620. Moreover, the GI50 in the test on UO-31 is 40.3 µM (inactive).
Take `O=C(O)COc1cc(-c2ccccc2F)nc2cc3c(cc12)OCO3`: the GI50 in the test with DU-145 was > 100 µM (inactive); in the test on EKVX, > 100 µM (inactive); in the test on HCT-15, more than 100 µM; with HOP-92 it was 61.8 µM (inactive); in the test on K562, > 100 µM (inactive); with KM12, > 100 µM (inactive). Also, the GI50 in the test with M14, in the test with MDA-MB-231, with MDA-N, with MOLT-4, in the test with OVCAR-3 and in the test with OVCAR-5 was > 100 µM (inactive) throughout. The GI50 in the test with SF-295, in the test with SK-MEL-2, in the test on SK-MEL-5, with SN12C and in the test on SW-620 was > 100 µM (inactive) each time.
Turning to `N=C(N)N/N=C/c1c(Cl)nc2n1CCS2`, the GI50 is 90.8 µM (inactive) with A498; 90.2 µM (inactive) in the test with DU-145; > 100 µM (inactive) with EKVX; more than 100 µM in the test with HCT-15; 70.3 µM (inactive) in the test on HOP-92; 53.2 µM (inactive) with K562. Besides, the GI50 was 34.8 µM (inactive) in the test with KM12; 56.4 µM (inactive) in the test with M14; 29 µM (inactive) in the test on MDA-N; 46.8 µM (inactive) with MOLT-4; 48.4 µM (inactive) in the test on NCI-H460; 44.4 µM (inactive) in the test on OVCAR-3. For the same molecule, the GI50 was 76.9 µM (inactive) in the test on OVCAR-5; 99.1 µM (inactive) in the test with SF-295; > 100 µM (inactive) with SK-MEL-2; > 10 µM (inactive) with SK-MEL-5; 62.5 µM (inactive) with SN12C; 73.8 µM (inactive) with SW-620. Further, in the test with UO-31, the GI50 is > 100 µM (inactive).
